Measured values published in patent publication US20250134860A1, “NOVEL COMPOUND, AND COMPOSITION FOR PREVENTING, ALLEVIATING OR TREATING BACTERIAL INFLAMMATION AND INFLAMMASOME-MEDIATED DISEASES, COMPRISING SAME AS ACTIVE INGREDIENT” (Quorum Bio Co., Ltd., priority 2022, published 2025).
Values joined by “and” are separate entries in the source; they are usually repeats but may differ in a detail not shown here. Equal entries are not always repeated. Blank lines part the entries; values can stand above or below the molecule they belong to.

Key:
[1] = tested on: P. gingivalis; assay: Inhibitory effect on P. gingivalis biofilm formation (crystal violet, OD590nm); type: cell-based, Porphyromonas gingivalis; conditions: 48 hours; for biofilm formation of P. gingivalis increased by DPD: DPD 10 μM + compound 0.002, 0.02, 0.2, 2 μM, anaerobic, OD590nm
[2] = tested on: gingipain genes (rgpA, rgpB, kgp); assay: Inhibitory effect on gingipain expression of P. gingivalis (RT-qPCR); type: cell-based, Porphyromonas gingivalis; conditions: 48 hours
Protocol: The compounds of Examples were respectively treated onto the medium cultured with P. gingivalis, and the expression levels of three gingipain proteins (lysine-gingipain (Kgp), arginine-gingipain A (RgpA), and arginine-gingipain B (RgpB)) produced by P. gingivalis, which are major virulence factors and proteolytic enzymes, were confirmed.
The culture medium containing 10 μM of DPD (4,5-dihydroxy-2,3-pentane dione), which is a precursor of the bacterial signal substance (Autoinducer-2), and the culture medium containing 2 μM of the example compound or not were respectively dispensed into a cell culture plate (48 well plate), and then P. gingivalis (2×10^8 cell/ml) were inoculated for each group. The culture medium cultured with bacteria was cultured at 37° C. under anaerobic conditions (10% H2, 10% CO2, and 80% N2) for 48 hours.
After 48 hours, each culture medium was centrifuged at 13,000 rpm for 1 minute to remove the supernatant, and total RNA was extracted using easy-BLUE™ Total RNA Extraction kit (iNtRON Biotechnology, Sungnam, Korea) to synthesize cDNA, and then the expression of the gingipain gene was confirmed by real-time PCR method. cDNA was synthesized using AccuPower® CycleScript RT PreMix dN6 (Bioneer, Daejeon, Korea), and real-time (quantitative) reverse transcription PCR (RT-qPCR) was carried out using Power SYBR™ Green PCR Master Mix (Applied Biosystems, Foster City, CA, USA).
RT-qPCR amplification conditions were as follows: after enzyme activation at 95° C. for 3 minutes, denaturation at 95° C. for 10 seconds and primer annealing at 60° C. for 30 seconds were repeated 40 times, and analysis was performed using a Bio-Rad CFX Connect Real-Time PCR Detection System (Bio-Rad, Hercules, CA, USA). To normalize the expression level of the gingipain gene, the 16s rRNA gene was used, and the gene expression level was calculated using the Comparative Ct Method (ΔΔCt), which is shown in FIGS. 5a to 5c.

[3] = Plasma stability in human plasma (LC-MS/MS); type: in vitro ADME; conditions: 37° C., 0, 30, 60, 120, 240 minutes
Protocol: (§1) The compounds of Examples 1-2 and Comparative Example, and the substance used as the positive control (Eucatropine, Loterpresnol) were dissolved in DMSO to prepare a stock solution having a concentration of 10 mM. The stock solution of each test substance was then diluted to prepare 0.2 mM and 1 mM working solutions and used for the test (For the comparative example compound, 70% acetonitrile was used as a solvent, and for the compound of Example 1-2, 50% acetonitrile was used as a solvent).
(§2) The positive control and the standard solution of the test substance were placed in tubes containing two types of plasma (human and rat) at concentrations of 1 μM and 5 μM, respectively, and then incubated at 37° C. for a prescribed time (0, 30, 60, 120, 240 minutes) while shaking and mixing. At each time point, the mixture sample was dispensed in 100 μl increments into a cell culture plate (96-well plate) containing 400 μl of quench reagent to terminate the test, After centrifugation (5000×g, 10 min), 100 μl of the supernatant was taken out, mixed with 200 μl of ultrapure water, and the solution was then injected into a LC-MS/MS system to analyze the drug in each time zone. Thereby, the plasma stability of the compounds of Comparative Example and Example 1-2 was evaluated.

[4] = Plasma stability in rat plasma (LC-MS/MS); type: in vitro ADME; conditions: 37° C., 0, 30, 60, 120, 240 minutes
Protocol: as §1, §2

[5] = General symptoms and body weight in the rat micronucleus study; type: in vivo; conditions: positive control 20 mg/kg/day P.O.
Protocol: In addition, body weight was measured on the day of administration start and bone marrow collection to confirm presence/absence of changes due to administration of the substance, and the results are shown in Table 4 below.

[6] = tested on: Sprague-Dawley rat bone marrow cells; assay: Rat micronucleus test; conditions: positive control 20 mg/kg/day P.O., 24 hours after dosing
Protocol: Hair was removed from the administration site (subcutaneous) of the SD rats, the administration concentration of the example compounds were set to a low dose (500 mg/kg/day), a medium dose (1000 mg/kg/day), and a high dose (2000 mg/kg/day), and administered subcutaneously to the left and right […] of the test system (10 ml/kg/day each), and the compound was administered subcutaneously in divided doses to the left and right […] of the test system (10 ml/kg/day each).
24 hours after the second administration of the test substance, the femur was removed from each group to collect bone marrow cells. 0.5 mL of 10% neutral formalin was added to the bone marrow cell suspension, fixed for 5 minutes, centrifuged for 5 minutes (4° C., 1,000 rpm, Micro17TR, Hanil Science Industrial, Republic of Korea) to remove the supernatant. Then, 0.3 mL of 10% neutral formalin was added to the precipitated bone marrow cells, suspended, filtered through a cell strain, and transferred to a storage tube. The fixed bone marrow cell suspension was dropped onto a cover glass, and then covered with a slide glass coated with 20 μL of 0.05% acridine orange to prepare an observation slide. The observation slide was observed under a microscope (600× magnification, BX51, Olympus, Japan).
As an indicator of bone marrow cell proliferation inhibition, 500 total red blood cells per individual were observed, and the ratio of polychromatic red blood cells to total red blood cells (PCE/(PCE+NCE)) was calculated. As a positive control, cyclophosphamide (Cas No: 50-18-0) was administered at a dose of 20 mg/kg/day.

SMILES: COc1ccc(C(=C2c3ccccc3C(=O)N2C)c2ccc(OC)cc2)cc1 [Example 1-3, 3-(bis(4-methoxyphenyl)methylene)-2-methylisoindolin-1-one]
- biofilm formation of P. gingivalis increased by DPD [1]: inhibited in a concentration-dependent manner

SMILES: CC(=O)C(=O)C(O)CO (stereo not shown) [DPD, 4,5-dihydroxy-2,3-pentanedione, reference compound]
- expression levels of three gingipain genes (rgpA, rgpB, kgp) ([2]; DPD 10 μM alone compared with untreated control): increased more than in the control group
- biofilm formation of P. gingivalis ([1]; DPD 10 μM alone compared to medium with PBS (CT)): significantly increased

- amount of the compound remaining in the plasma [3]: decreased over time
- amount of the compound remaining in the plasma [4]: decreased over time
SMILES: O=C1O/C(=C(\Br)c2ccccc2)c2ccccc21 [Comparative Example, (Z)-3-(bromo (phenyl)methylene) isobenzofuran-1 (3H)-one, reference compound]
- biofilm formation of P. gingivalis increased by DPD [1]: inhibited in a concentration-dependent manner

SMILES: O=P1(N(CCCl)CCCl)NCCCO1 (stereo not shown) [CPA, cyclophosphamide]
- Body weight (g) 1 day after 2nd dosing, Mean ([5]; administered once, group mean): 278.9 g
- Body weight (g) 1 day after 2nd dosing ([5]; administered once, individual animals 1501-1505): 279.4 g and 281.5 g
- Body weight (g) before 1st dosing, Mean ([5]; group mean): 266.8 g
- Body weight (g) before 1st dosing ([5]; individual animals 1501-1505): 282.2 g
- MNPCE/PCE, %(Mean) ([6]; group mean): 3.060%
- PCE/(PCE+NCE), %(Mean) ([6]; group mean): 33.5%
- PCE/(PCE+NCE): PCE count ([6]; individual animals, per 500 total red blood cells): 166 and 170
- MNPCE/PCE: MNPCE count ([6]; individual animals, per 4,000 PCE): 150 and 154 and 167 (2×)

SMILES: CN1C(=O)c2ccccc2C1=C(c1ccccc1)c1ccccc1 [Example 1-1, 3-(diphenylmethylene)-2-methylisoindolin-1-one]
- expression levels of three gingipain genes (rgpA, rgpB, kgp) increased by DPD ([2]; DPD 10 μM + compound 2 μM, normalized to 16s rRNA): reduced
- biofilm formation of P. gingivalis increased by DPD [1]: inhibited in a concentration-dependent manner
